Measurements published in publication PMC5554537 (Frontiers in Pharmacology, 2017).
Like-named read-outs stand apart in the source and are kept apart here.

Key:
[1] = tested on: HCT116 cells; test: Antiproliferative potency, 4 h exposure, sulforhodamine B; format: cell-based, human; conditions: for IC50: Homo sapiens, HCT-116, 4 h, HCT116, 4 h exposure, read-out: IC50
Procedure: Antiproliferative potency of SN30000 and its major metabolites following 4 h exposure of HCT116 cells under aerobic or anoxic conditions. […]
a HCT116 cells, originally from ATCC, were authenticated by short tandem repeat profiling and confir med mycoplasma-free by PCR/ELISA assay . Cells were passaged in Alpha MEM with 5% foetal bovine serum without antibiotics. In vitro cytotoxicity of SN30000 and metabolites was measured as the inhibition of cell proliferation as described previously (Gu et al., 2009). Briefly, cells were exposed to compounds for 4 h under aerobic (20% O2) or anoxic (Bactron anaerobic chamber) conditions and then grown in an aerobic 5% CO 2 incubator for 5 d before staining with sulforhodamine B. IC50 values were deter mined by interpolation (nonlinear regression to the standard Hill equation) as the drug concentration reducing staining to 50% of controls on the same plate. b Values are mean ± SEM for the numb er of independent experiments shown in parentheses.

[2] = Plasma protein binding by equilibrium dialysis; format: in vitro ADME; conditions: NIH-III mouse plasma, 37°C, 6 h
Procedure: TABLE 11: Protein binding of SN30000, M14 and M18 at the indicated concentrations in NIH-III mouse plasma, measured by equilibrium dialysisa.
(µM) Percent Protein Bound (Mean ± SD)b […]
a Protein binding was evaluated by equilibrium dialysis using a high throughput plate with 12-14KDa dialysis membrane (HTDialysis, Gales Ferry, CT) as described by Banker et al., 2003, with modification. Briefly, 100 µL samples of plasma containing SN30000 or metabolites (M14 and M18) were dialysed against 100 µL PBS (pH 7.4) in an incubator (Innova-42, New Brunswick Scientific, US ) at 37°C with shaking at 80 rpm for 6 h. To achieve matrix match, 10 µL of blank plasma was added to 90 µL of the PBS sample and 90 µL of PBS was added to 10 µL of the plasma sample. Proteins were precipitated with 3 vol of ice-cold MeCN, the centrifuged supernatants were mixed with 2 vol 45 mM ammonium formate buffer pH 4.5, and 50 µL samples were analysed by HPLC with absorbance […]
bValues are mean and SD for triplicate samples.

[3] = i.p. SN30000 186 mg/kg
Procedure: (§1) M18 was quantified by absorbance detection with reference to an external standard calibration curve.
(§2) Concentration-time data were analyzed by non-compartmental analysis using Phoenix WinNonlin (ver 6.4, Build 6.4.0768 Pharsight, United States); all AUC values were extrapolated to infinity using the linear trapezoidal rule.
(§3) SN30000, M14 and M13 were quantified by LC-MS/MS using stable isotope internal standards, while M18 was quantified by absorbance detection using external standard calibration curves.

[4] = in vivo; conditions: NIH-III, mouse, ip, 186 mg/kg
Procedure: as §1, §2, §3

[5] = Stability in mouse plasma (QC samples); format: physicochemical
Source text: using octa-deuterated internal standards of SN30000, M13 and M14 synthesised as previously reported (Wang et al., 2012). Intra- and inter-day precision (expressed as relative standard deviation (RSD) and accuracy (expressed as percentage of the nominal value) were deter mined by analy sis of replicates (n=6) of low and high quality control (QC) samples on three different days. The lower limit of quantitation (LLOQ) was defined as the lowest concentration providing RSD and accuracy < 20%. Recovery from plasma and liver ho mogenates was tested at the three QC levels. The recoveries were evaluated by comparing extracted samples with blank extracted solutions spiked with analytes of the same amount.
Matrix effects, defined as the change in response due to the presence of other substances in the samples, were evaluated by comparing the analytes diluted into the blank plasma or liver extracted solution with that of the same stock solutions diluted in water. Three different concentration levels (low, medium and high QC) were evaluated by analysing three samples at each level. Accuracy , precision, recovery and matrix effects were all acceptable over the concentration ranges evaluated for plas ma (Supplementary Table 1) and for liver homogenates (Supplementary Table 2).
Stability of the analytes in mouse plasma (Supplementary Table 3) or liver homogenate (Supplementary Table 4) was confirmed during holding of QC samples on ice for up to 2 h under nor mal laboratory lighting, although there was a trend towards loss of SN30000 in plasma samples held in clear microcentrifuge tubes which may reflect the known photosensitivity of the compound (Gu et al., 2014). This loss was reduced by use of red microcentrifuge tubes, and eliminated by black tubes. Stability in both matrices was also confir med for one month storage at -80°C and for three freeze-thaw cycles, while MeOH-deproteinised samples w ere stable for 12 h at 4°C in the autosampler (Supplementary Tables

[6] = HT29 tumour, tumour-bearing mice
[7] = liver, HT29 tumour-bearing mice
[8] = plasma, HT29 tumour-bearing mice
[9] = plasma, non-tumour-bearing mice
[10] = plasma deproteinised in 3 vol MeOH, 12 h autosampler at 4°C, nominal SN30000 0.5, M14 0.25, M13 0.1 µM
[11] = plasma deproteinised in 3 vol MeOH, 12 h autosampler at 4°C, nominal SN30000 5, M14 2.5, M13 1 µM
[12] = plasma deproteinised in 3 vol MeOH, 12 h autosampler at 4°C, nominal SN30000 50, M14 25, M13 10 µM
[13] = plasma, 1 month at -80°C, nominal SN30000 0.5, M14 0.25, M13 0.1 µM
[14] = plasma, 1 month at -80°C, nominal SN30000 5, M14 2.5, M13 1 µM
[15] = plasma, 1 month at -80°C, nominal SN30000 50, M14 25, M13 10 µM
[16] = plasma, 1 h on ice, black vial, nominal SN30000 0.5, M14 0.25, M13 0.1 µM
[17] = plasma, 1 h on ice, black vial, nominal SN30000 5, M14 2.5, M13 1 µM
[18] = plasma, 1 h on ice, black vial, nominal SN30000 50, M14 25, M13 10 µM
[19] = plasma, 1 h on ice, clear vial, nominal SN30000 0.5, M14 0.25, M13 0.1 µM
[20] = plasma, 1 h on ice, clear vial, nominal SN30000 5, M14 2.5, M13 1 µM
[21] = plasma, 1 h on ice, clear vial, nominal SN30000 50, M14 25, M13 10 µM
[22] = plasma, 1 h on ice, red vial, nominal SN30000 0.5, M14 0.25, M13 0.1 µM
[23] = plasma, 1 h on ice, red vial, nominal SN30000 5, M14 2.5, M13 1 µM
[24] = plasma, 1 h on ice, red vial, nominal SN30000 50, M14 25, M13 10 µM
[25] = plasma, 2 h on ice, black vial, nominal SN30000 0.5, M14 0.25, M13 0.1 µM
[26] = plasma, 2 h on ice, black vial, nominal SN30000 5, M14 2.5, M13 1 µM
[27] = plasma, 2 h on ice, black vial, nominal SN30000 50, M14 25, M13 10 µM
[28] = plasma, 2 h on ice, clear vial, nominal SN30000 0.5, M14 0.25, M13 0.1 µM
[29] = plasma, 2 h on ice, clear vial, nominal SN30000 5, M14 2.5, M13 1 µM
[30] = plasma, 2 h on ice, clear vial, nominal SN30000 50, M14 25, M13 10 µM
[31] = plasma, 2 h on ice, red vial, nominal SN30000 0.5, M14 0.25, M13 0.1 µM
[32] = plasma, 2 h on ice, red vial, nominal SN30000 5, M14 2.5, M13 1 µM
[33] = plasma, 2 h on ice, red vial, nominal SN30000 50, M14 25, M13 10 µM
[34] = plasma, three freeze-thaw cycles, nominal SN30000 0.5, M14 0.25, M13 0.1 µM
[35] = plasma, three freeze-thaw cycles, nominal SN30000 5, M14 2.5, M13 1 µM
[36] = plasma, three freeze-thaw cycles, nominal SN30000 50, M14 25, M13 10 µM

Structure (SMILES): O=C(O)CCc1nc2cc3c(cc2[n+]([O-])n1)CCC3 [M18]
- IC50 ([1]; aerobic (20% O2)): > 1670 µM
- IC50 ([1]; anoxic): > 1670 µM
- Potency relative to SN30000 (fold less potent) ([1]; anoxic HCT116 cultures): at least 1000 fold
- Percent Protein Bound (Mean ± SD) ([2]; 10 µM): 91.77 ± 0.01%
- Percent Protein Bound (Mean ± SD) ([2]; 100 µM): 90.32 ± 0.01%
- Detection in brain [3]: not detected in brain
- Plasma concentration reached ([3]; negligible elimination up to 3 h): > 100 µM
- AUC 0-3hr ([3]; HT29 tumour): 34.8 µmol·h/kg
- Cmax [3, 6]: 17.6 µmol/kg
- AUC 0-3hr [3, 7]: 92 µmol·h/kg
- Cmax [3, 7]: 46.1 ± 5.2 µmol/kg
- AUC 0-3hr ([3]; liver, non-tumour-bearing mice): 107 µmol·h/kg
- Cmax ([3]; liver, non-tumour-bearing mice): 53.5 ± 4.0 µmol/kg
- AUC 0-3hr [3, 8]: 322 µmol·h/kg
- AUC 0-3hr [3, 9]: 349 µmol·h/kg
- Cmax ([4]; in vivo, i.p. SN30000 186 mg/kg, plasma, HT29 tumour-bearing mice): 139 ± 6 µM
- Cmax ([4]; in vivo, i.p. SN30000 186 mg/kg, plasma, non-tumour-bearing mice): 119 ± 3 µM
- half-life ([4]; in vivo, Terminal T1/2, i.p. SN30000 186 mg/kg, liver, HT29 tumour-bearing mice): 392 min
- half-life ([4]; in vivo, Terminal T1/2, i.p. SN30000 186 mg/kg, liver, non-tumour-bearing mice): 183 min
- half-life ([4]; in vivo, Terminal T1/2, i.p. SN30000 186 mg/kg, plasma, HT29 tumour-bearing mice): 960 min
- half-life ([4]; in vivo, Terminal T1/2, i.p. SN30000 186 mg/kg, plasma, non-tumour-bearing mice): 173 min

Structure (SMILES): c1c2c(cc3nc(CCCN4CCOCC4)nnc13)CCC2 [M13]
- Bias [5, 10]: -3.42%
- Measured conc [5, 10]: 0.10 µM
- Bias [5, 11]: -1.26%
- Measured conc [5, 11]: 0.99 µM
- Bias [5, 12]: 5.41%
- Measured conc [5, 12]: 10.54 µM
- Bias [5, 13]: 1.68%
- Measured conc [5, 13]: 0.10 µM
- Bias [5, 14]: 1.94%
- Measured conc [5, 14]: 1.00 µM
- Bias [5, 15]: 1.85%
- Measured conc [5, 15]: 11.05 µM
- Bias [5, 16]: -7.00%
- Measured conc [5, 16]: 0.09 µM
- Bias [5, 17]: -7.17%
- Measured conc [5, 17]: 0.93 µM
- Bias [5, 18]: 5.90%
- Measured conc [5, 18]: 10.59 µM
- Bias [5, 19]: -7.05%
- Measured conc [5, 19]: 0.09 µM
- Bias [5, 20]: -3.76%
- Measured conc [5, 20]: 0.96 µM
- Bias [5, 21]: -3.61%
- Measured conc [5, 21]: 9.64 µM
- Bias [5, 22]: -5.72%
- Measured conc [5, 22]: 0.09 µM
- Bias [5, 23]: -5.29%
- Measured conc [5, 23]: 0.95 µM
- Bias [5, 24]: 0.10%
- Measured conc [5, 24]: 10.01 µM
- Bias [5, 25]: -0.52%
- Measured conc [5, 25]: 0.10 µM
- Bias [5, 26]: 1.13%
- Measured conc [5, 26]: 1.01 µM
- Bias [5, 27]: 0.55%
- Measured conc [5, 27]: 10.06 µM
- Bias [5, 28]: -9.85%
- Measured conc [5, 28]: 0.09 µM
- Bias [5, 29]: -4.92%
- Measured conc [5, 29]: 0.95 µM
- Bias [5, 30]: -8.95%
- Measured conc [5, 30]: 9.10 µM
- Bias [5, 31]: -7.29%
- Measured conc [5, 31]: 0.09 µM
- Bias [5, 32]: -4.71%
- Measured conc [5, 32]: 0.95 µM
- Bias [5, 33]: -3.91%
- Measured conc [5, 33]: 9.61 µM
- Bias [5, 34]: -4.05%
- Measured conc [5, 34]: 0.10 µM
- Bias [5, 35]: -2.61%
- Measured conc [5, 35]: 0.97 µM
- Bias [5, 36]: 4.39%
- Measured conc [5, 36]: 10.44 µM
- Concentrations in brain compared with plasma [3]: higher in brain than plasma
- AUC (extrapolated to infinity) [3, 6]: 57.7 µmol·h/kg
- Cmax [3, 6]: 15.5 ± 2.2 µmol/kg
- AUC (extrapolated to infinity) ([3]; brain, non-tumour-bearing mice): 46.7 µmol·h/kg
- Cmax ([3]; brain, non-tumour-bearing mice): 52.8 ± 4.1 µmol/kg
- AUC (extrapolated to infinity) [3, 7]: 158 µmol·h/kg
- Cmax [3, 7]: 155.4 ± 8.4 µmol/kg
- AUC (extrapolated to infinity) ([3]; liver, non-tumour-bearing mice): 158 µmol·h/kg
- Cmax ([3]; liver, non-tumour-bearing mice): 178.7 ± 8.1 µmol/kg
- AUC (extrapolated to infinity) [3, 8]: 14. 9 µmol. hr/kg
- AUC (extrapolated to infinity) [3, 9]: 13.0 µmol·h/kg
- half-life ([4]; HT29 tumour, Terminal T1/2, i.p. SN30000 186 mg/kg, tumour-bearing mice): 126 min
- half-life ([4]; all tissues except tumors, Elimination half-life, i.p. SN30000 186 mg/kg): ~30 min
- half-life ([4]; brain, Terminal T1/2, i.p. SN30000 186 mg/kg, non-tumour-bearing mice): 34.9 min
- Tmax [4]: ≤ 5 min
- half-life ([4]; liver, Terminal T1/2, i.p. SN30000 186 mg/kg, HT29 tumour-bearing mice): 52.4 min
- half-life ([4]; liver, Terminal T1/2, i.p. SN30000 186 mg/kg, non-tumour-bearing mice): 42.1 min
- half-life ([4]; plasma, Terminal T1/2, i.p. SN30000 186 mg/kg, HT29 tumour-bearing mice): 53.2 min
- half-life ([4]; plasma, Terminal T1/2, i.p. SN30000 186 mg/kg, non-tumour-bearing mice): 42.4 min
